Source: patent US11147816B2, “Composition for inducing differentiation and protection of neural stem cells and method for inducing neuro-regeneration using the same composition” (GENUV Inc., priority 2016, dated 2021)

Tests used:
5XFAD mouse [1] = test: Nissl, NeuN and DCX staining in the hippocampal dentate gyrus (Example 9-2); type: in vivo; conditions: orally daily for 28 days
Experimental: After placing in 0.1% cresyl violet (Sigma, cat#. C5042) solution at room temperature for 15 minutes, they were dehydrated by sequentially immersing in 80%, 90%, 100% alcohol, and xylene. Coverslips were put on the slides and the neurons examined.
NeuN staining was performed by the same method as described in Example 8 as was DCX staining, but using anti-DCX antibodies (Santa Cruz, cat#. sc271390) instead of anti-NeuN antibodies.

5XFAD mouse [2] = test: BrdU staining in the hippocampal dentate gyrus (Example 9-3); conditions: orally daily for 28 days, vs vehicle
Experimental: For the BrdU staining to be performed later, 50 mg/kg of BrdU (Sigma, cat#. B5002) was added to the daily dose for the last 5 days. The mouse was then anesthetized and perfused with PBS for the extraction of the brain. Of the brains extracted from 3 mice of each group, half of the brain tissue (hemispheres) was immediately stored in the deep freezer for western blotting and ELISA experiments to be performed later. The other half of the hemispheres plus another 3 extracted mice brains per group were placed in 10% formalin solution at 4° C. for 1 day, which was then followed with the proceeding steps to allow good penetration of paraffin into the brain tissue. The brain tissues were immersed sequentially in 70%, 80%, 95%, 100% alcohol for 1 hour each for dehydration, then immersed in xylene 3 times for 1 hour each for clearing, and embedded in paraffin by placing in liquid paraffin 2 times for 1 hour each. After these procedures, the paraffin-embedded brain tissue (paraffin block) was cut into 5 μm sections, mounted on slides, and stored at room temperature. Prior to immunohistochemical staining, the tissues on the slides were rehydrated by sequentially immersing in xylene, 100%, 90%, 80%, 70%, 50% alcohol,and then water for 5 minutes each. […]

[3] = tested on: mouse embryonic neural stem cells; test: Morphology analysis of NSC differentiation in mouse embryonic neural stem cells (Examples 1, 6); type: cell-based
Experimental: Neural stem cells were isolated from the brain of a day 14.5 mouse embryo, treated with 10 ng/ml human basic fibroblast growth factor (bFGF) (Peprotech, Princeton, NG, cat#.100-18B) and 20 ng/ml human epidermal growth factor (EGF) (Peprotech, cat#. AF-100-15) in a N2 culture medium, and cultured in suspension in a 25 cm2 flask (Nunc, Pittsburgh, Pa.) for 4 days. Formation of neurospheres was observed after 2 days.
In order to isolate single cells, 6-well plates were prepared the day before by treating the wells with 15 μg/ml poly-L-ornithine (Sigma, St. Louis, Mo., cat#.P2533) solution and incubating overnight at 37° C. for coating. The day of the single cell isolation, poly-L-ornithine solution was removed, the plates were washed with PBS three times, and 10 μg/ml fibronectin (Gibco, Waltham, Mass., cat#. 33016015) solution was added and incubated at 37° C. for 2 hours for coating.
Various concentrations of the compound of [Formula 1] […]

[4] = tested on: mouse embryonic neural stem cells; test: Immunocytochemistry analysis, Tuj1 and DAPI staining (Example 3); type: cell-based; conditions: 10 nM, 4 days
Experimental: Tuj1 (Neuron specific class III beta-tubulin) is a neuron specific marker protein, which was conjugated to rhodamine to show fluorescent red, while DAPI binds to the cell DNA and stains the cell nuclei fluorescent blue. […] The medium was removed and the cells were washed with PBS. After fixing with 10% formaldehyde (Sigma cat#. HT501128) at room temperature for 10 minutes, they were washed again with PBS. They were permeabilized with 0.2% Triton X-100 (Sigma, cat#. 93443) at room temperature for 15 minutes, washed with PBS, and incubated with 10% BSA (Sigma, cat#. A2153)+1% normal goat serum (Vector lab, Burlingame, Calif., cat#. S1000) at room temperature for 1 hour. […] The solution was removed, washed with PBS, and incubated at room temperature for 1 hour with the secondary antibody (rhodamine-conjugated antibody) diluted in 1% BSA+1% normal goat serum at a ratio of 1:200. Then, the cells were washed with PBS, incubated with 5 μg/ml DAPI (Sigma, cat#. D9542) for 5 minutes, washed with PBS again, and mounted on a slide glass for analysis with a fluorescent microscope.

5XFAD mouse [5] = test: Cerebellar Purkinje cell Tuj1 and calbindin staining (Example 11); type: in vivo; conditions: particularly 0.1 mg/kg, orally daily for 28 days, vs vehicle
Description: Two slides for Tuj1 staining and three for calbindin staining are shown for each treatment group.

[6] = tested on: mouse embryonic neural stem cells; test: qRT-PCR of relative mRNA expression of neuronal markers in mouse embryonic NSC (Examples 4-1, 4-2, 6); type: cell-based; conditions: 1 nM
Experimental: Isopropanol (Ducsan, GyunggiDo, Korea, cat#. 67-63-0) was added and mixed for RNA isolation, then centrifuged again to remove the supernatant and obtain the pellet. The RNA pellet was resuspended in 75% ethanol (Ducsan, cat#. 64-17-15), centrifuged, and the supernatant removed. The pellet was then resuspended in sterilized triple distilled water to obtain the mRNA, incubated for 10 minutes at 55° C., and stored at −80° C.
Sterilized triple distilled water, […] oligo dT, and 1 mM dNTP were added to the RNA and incubated for 5 minutes at 65° C. This was followed by the addition of 5X First-strand buffer, 10 mM DTT, and M-MLV reverse transcriptase and incubated at 42° C. for 1 hour, then at 72° C. for 15 minutes, and at 4° C. for 30 minutes. The synthesized cDNA was stored at −20° C.
The term relative mRNA expression level signifies that in order to normalize each group's total RNA level, the mRNA expression level of each differentiation marker is divided by the expression level of GAPDH whose expression level is fairly constant across cells, and then the values of each test material are compared with those of the controls (undifferentiated NSC) in each group.

pERK = test: Western blotting of pERK in brain hemispheres (Example 12); conditions: 0.1 mg/kg and 1.0 mg/kg orally daily for 28 days, vs vehicle
Experimental: The mouse was then anesthetized and perfused with PBS for the extraction of the brain. Of the brains extracted from 3 mice of each group, half of the brain tissue (hemispheres) was immediately stored in the deep freezer for western blotting and ELISA experiments to be performed later.
The powder was divided into 6 parts, put into new tubes, and placed back into the deep freezer. […] The powder was carefully suspended with a pipette in RIPA buffer, incubated on ice for 10 minutes, centrifuged at 13000 rpm, 4° C., and the supernatant was collected. […] The protein bands were detected with a photosensitive imaging system (FIG. 19a). In order to quantify the change in pERK expression, the expression levels of pERK and ERK were measured by densitometry, and the expression level of pERK was normalized against the expression level of ERK.

Aβ(1-40) and Aβ(1-42) = test: ELISA of Aβ(1-40) and Aβ(1-42) in brain hemispheres (Example 13); type: in vivo, mouse; conditions: orally daily for 28 days, vs vehicle
Experimental: Using the ground powder of 5XFAD mouse brain hemispheres obtained in Example 12, the amount of Aβ(1-40) and Aβ(1-42) was quantified by ELISA (enzyme-linked immunosorbent assay). […] After measuring the protein concentration, dilution buffer was added to obtain 30˜50 μg of protein in 100 μl solution. 100 μl each of anti-Aβ(1-40) and Aβ(1-42) antibodies were added to the 96-well plates, incubated at room temperature for 2 hours, then removed and washed 4 times with wash buffer. 100 μl each of HRP-conjugated secondary antibodies was added and incubated at room temperature for 30 minutes. The solution was then removed and washed again 4 times with wash buffer. 100 μl of the […] was added to the wells, incubated in the dark for 30 minutes, and 100 μl of the stop solution added to terminate the reaction. Then, the chemiluminiscence reaction was measured at 450 nm with an ELISA plate reader. The absorbance was converted in reference to the standard concentration and the concentration of each protein was determined. The amount of Aβ(1-40) and Aβ(1-42) in reference to the total amount of protein (30˜50 μg) was calculated, and then the amount of Aβ(1-42) in reference to the amount of Aβ(1-40) was calculated.

5XFAD mouse [7] = test: NeuN immunohistochemical staining, number of neurons in the Alzheimer's disease mouse model (Example 8)
Experimental: For the BrdU staining to be performed later, 50 mg/kg of BrdU (Sigma, cat#. B5002) was added to the daily dose for the last 5 days. The mouse was then anesthetized and perfused with PBS for the extraction of the brain. […] The other half of the hemispheres plus another 3 extracted mice brains per group were placed in 10% formalin solution at 4° C. for 1 day, which was then followed with the proceeding steps to allow good penetration of paraffin into the brain tissue. The brain tissues were immersed sequentially in 70%, 80%, 95%, 100% alcohol for 1 hour each for dehydration, then immersed in xylene 3 times for 1 hour each for clearing, and embedded in paraffin by placing in liquid paraffin 2 times for 1 hour each. After these procedures, the paraffin-embedded brain tissue (paraffin block) was cut into 5 μm sections, mounted on slides, and stored at room temperature. Prior to immunohistochemical staining, the tissues on the slides were rehydrated by sequentially immersing in xylene, 100%, 90%, 80%, 70%, 50% alcohol,and then water for 5 minutes each. […] The next day, the slides were incubated with anti-rabbit antibodies (Vector lab, cat#. PI-1000) at room temperature for 1 hour and then stained with DAB staining for the analysis of the neuronal distribution in the brain.
FIG. 12b indicates the number of NeuN stained cells counted and represented as the percentage of the number of cells per unit area in the somatosensory cortex layer 5 region. Area samples were taken from 3 areas per mouse, 3 mice per group, so the number of cells counted was from a total of 9 areas.
FIG. 13b indicates the number of NeuN stained cells counted and represented as the percentage of the number of cells per unit area in the motor cortex layer 5 region. Area samples were taken from 6 areas per mouse, 3 mice per group, so the number of cells counted was from a total of 18 areas.
FIG. 14b indicates the number of NeuN stained cells counted and represented as the percentage of the number of cells per unit area in the dotted area of the hippocampal subiculum shown in FIG. 14a. Area samples were taken from 3 areas per mouse, 3 mice per group, so the number of cells counted was from a total of 9 areas.

[8] = 10 nM, 25 nM, 100 nM for 2 days
[9] = 0.1 mg/kg and 1.0 mg/kg orally daily for 28 days, vs vehicle

Structure (SMILES): CC(=O)Nc1cccc(-n2c(=O)n(C3CC3)c(=O)c3c(Nc4ccc(I)cc4F)n(C)c(=O)c(C)c32)c1 [trametinib, N-(3-{3-cyclopropyl-5-[(2-fluoro-4-iodophenyl)amino]-6,8-dimethyl-2,4,7-trioxo-3,4,6,7-tetrahydropyrido[4,3-d]pyrimidin-1(2H)-yl}phenyl)acetamide]
- immature neurons stained by DCX in the dentate gyrus (5XFAD mouse [1]): seen to be present
- number of cells with morphology of Type 2 or Type 3 cells in the subgranular zone of the dentate gyrus (Nissl, NeuN) (5XFAD mouse [1]): increased considerably
- number of BrdU stained cells in the dentate gyrus (5XFAD mouse [2]): an increase in the number of cells stained with BrdU
- differentiation of NSC into neurons (morphology) ([3]; 10 nM, 25 nM and 100 nM, added daily, 4 days): readily induced the differentiation of NSC into neurons
- NSC differentiation-inducing effect (morphology) ([3]; 0.1 μM, day 2 of culture): excellent NSC differentiation-inducing effect
- concentration at which the differentiation-inducing effect is seen ([3]; added daily, 4 days of culture): ≥ 10 nM
- neuron differentiation by Tuj1 staining [4]: showed increasingly active differentiation activity
- Purkinje cell axon structure (5XFAD mouse [5]): increased axon arborization or at least with preserved axon structure
- differentiation-inducing effect (Tuj1, TH mRNA) [6]: exerted its differentiation-inducing effect
- mRNA expression of GABAergic neuron marker Gad1 [6, 8]: increased with the increase in concentration of the trametinib added
- mRNA expression of cholinergic neuron marker ChAT [6, 8]: increased with the increase in concentration of the trametinib added
- mRNA expression of dopaminergic neuron marker TH [6, 8]: increased with the increase in concentration of the trametinib added
- mRNA expression of motor neuron marker Isl1 [6, 8]: increased with the increase in concentration of the trametinib added
- protein level of pERK in the brain (pERK): considerably lower
- amount of Aβ(1-42)/Aβ(1-40) (Aβ(1-40) and Aβ(1-42)): decreased
- number of NeuN stained neurons, hippocampal subiculum (5XFAD mouse [7]; [9]): significant increase in the number of neurons
- number of NeuN stained neurons, motor cortex layer 5 (5XFAD mouse [7]; [9]): significant increase in the number of neurons
- number of NeuN stained neurons, somatosensory cortex layer 5 (5XFAD mouse [7]; [9]): significant increase in the number of neurons stained with NeuN
- dose showing neural stem cell differentiation-inducing activity (5XFAD mouse [7]; 5xFAD mouse experiments): 0.1 mg/kg/day
